Test results as given in patent publication US20030125234A1, “Alteration of protein stability” (priority 2001, published 2003).

How the values were obtained:
Assay type in all cases: biochemical
[1] = biological target: T1, chicken egg white lysozyme (Gallus gallus, UniProt P00698); test: Lysozyme aggregation (turbidity at 360 nm) induced by DTT; conditions: Lysozyme 0.4 mg/mL, 25° C., DTT; compound 1,000×; standard deviation in parenthesis
T1 construct: chicken egg white lysozyme [Sigma]; purchased Sigma; host or cells: egg white
T1 sequence (P00698 19-147): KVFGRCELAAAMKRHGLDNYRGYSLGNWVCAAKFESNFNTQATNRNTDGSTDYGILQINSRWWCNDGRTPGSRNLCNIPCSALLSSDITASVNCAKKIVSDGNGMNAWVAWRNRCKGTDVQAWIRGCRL
Outline: (§1)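 Aggregation is scored as optical density at 360 nm over 1 h relative to untreated protein. Porcine somatotropin (1.27 mg/mL) is heated to 60° C in PEG 8000 (20 mg/mL); ADH (1 mg/mL) is oxidized with 7.76E-5 M Cu(OP)2 at 37° C; lysozyme and HLF (0.4 mg/mL) are reduced with 1.27E-4 M DTT at 25° C and 43° C.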

[2] = biological target: T2, porcine somatotropin (pST) (Sus scrofa, UniProt P01248); test: Porcine somatotropin aggregation (turbidity at 360 nm) with PEG 8000; conditions: pST 1.27 mg/mL, 60° C., standard deviation in parenthesis
T2 construct: purchased Pfizer, Inc., Groton, Conn., USA (provided, not bought)
T2 sequence (P01248 27-216): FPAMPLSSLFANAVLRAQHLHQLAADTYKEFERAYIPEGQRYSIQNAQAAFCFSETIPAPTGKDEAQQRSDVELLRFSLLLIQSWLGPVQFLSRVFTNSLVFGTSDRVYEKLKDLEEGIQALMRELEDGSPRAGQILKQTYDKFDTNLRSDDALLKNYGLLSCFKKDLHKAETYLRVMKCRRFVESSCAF
Outline: as §1

[3] = biological target: T3, yeast alcohol dehydrogenase (ADH) (Saccharomyces cerevisiae, UniProt P00330); test: ADH oxidation-induced aggregation (turbidity at 360 nm), Cu(OP)2; conditions: ADH 1 mg/mL, 37° C., Cu(OP)2
T3 construct: purchased Sigma
T3 sequence (P00330 2-348 limits assumed): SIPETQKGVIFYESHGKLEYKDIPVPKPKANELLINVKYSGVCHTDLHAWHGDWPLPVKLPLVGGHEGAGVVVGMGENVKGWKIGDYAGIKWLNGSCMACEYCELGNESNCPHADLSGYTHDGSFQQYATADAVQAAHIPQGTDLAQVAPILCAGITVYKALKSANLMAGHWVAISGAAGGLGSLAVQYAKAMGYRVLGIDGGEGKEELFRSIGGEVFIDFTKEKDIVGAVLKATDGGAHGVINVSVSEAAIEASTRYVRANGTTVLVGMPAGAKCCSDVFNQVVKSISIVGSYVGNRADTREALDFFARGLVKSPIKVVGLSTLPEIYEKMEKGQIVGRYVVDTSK
Outline: as §1

bovine alpha-lactalbumin = biological target: T4, bovine alpha-lactalbumin (Bos taurus, UniProt P00711); test: Alpha-lactalbumin aggregation (turbidity at 360 nm) induced by DTT; conditions: for inhibition index: α Lactalbumin 0.4 mg/mL, 37° C., DTT, compound 1,000×, standard deviation in parenthesis
T4 construct: purchased Sigma
T4 sequence (P00711 20-142): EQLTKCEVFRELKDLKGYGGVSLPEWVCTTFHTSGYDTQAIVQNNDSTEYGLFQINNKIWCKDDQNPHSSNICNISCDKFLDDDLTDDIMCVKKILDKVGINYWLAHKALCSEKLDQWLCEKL
Outline: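 Turbidity at 360 nm was recorded for 1 hour at 37° C. in 1 cm cuvettes in a thermostatted seven-position holder cycled every 30 seconds, or in a 96-well microtiter plate reader. After stirring, alpha-lactalbumin (0.4 mg/mL) was added, then DTT. OD360nm versus time data were analyzed in Excel relative to compound-free controls.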

[4] = compound 1,000X, standard deviation in parenthesis
[5] = compound 10,000X molar excess, Infinite = complete inhibition of aggregation over one hour

Row | inhibition index [1] | inhibition index ([2]; compound 100X) | inhibition index [3, 4] | inhibition index [3, 5] | inhibition index (bovine alpha-lactalbumin) | inhibition of α-lactalbumin aggregation, in words (bovine alpha-lactalbumin) | inhibition index ([2]; compound 2,000X) | Substance
1 | 0.9 (0.0) | 1.9 (0.3) | 4.0 (0.9) | 0.7 (0.1) | 1.0 (0.0) |  |  | diglycine
2 | 0.2 (0.1) | 0.7 (0.2) | 5.8 (3.1) | Infinite^4 | 3.1 (1.2) | Potent inhibitors |  | pentaglycine
3 | 2.1 (0.5) | 0.8 (0.1) | 8.4 (2.7) | 5313.1 | 1.3 (0.4) |  | 3.4 (0.6) | tetraglycine
